In this assay the test system is Scenedesmus obliquus green algae. Briefly: Synergism test of hops extract/biocide combinations (Kull Synergism Index), chlorophyll OD 650 nm endpoint. Type of assay: cell-based. The source says:
The accepted method used to determined synergism is described by Kull, F. C., Eisman, P. C., Sylwestrowicz, H. D., and Mayer, R. L. in Applied Microbiology 9:538-541 (1961), and is well known in the art.
The equation for determining synergism is as follows:
QaQA+Qb/QB=Synergism Index (SI)
Where QA and QB are the concentrations of compounds A or B that produce an endpoint when acting alone, and where Qa and Qb are the concentrations of compounds A or B acting in the A/B combination required to produce an endpoint. The endpoint is defined by the particular test method, for example, an optical density.
To determine synergism, one evaluates the Synergism Index (SI).
The efficacy of the invention was tested in the following manner:
Scenedesmus obliquus green algae cells were prepared in synthetic cooling water (pH 8.2) to a concentration of 10^7 CFU/ml. 100 ul of the algae suspension were added to 200 ul aliquots of hops extract antimicrobial compositions in synthetic cooling water contained in 96 well microplates (FALCON® 3075). A wide range of hops extract/biocide combinations were tested. Microplates were covered with the provided lid and incubated at 25° C. for six days with 16 hour/8 hour light/dark cycles (cool-white fluorescent lamps, 1255 lux). Following incubation, supernatant was removed from each microplate well by vacuum aspiration. […] 200 ul of dimethylsulfoxide (DMSO) were added to each microplate well to dissolve the algae cells and extract chlorophyll. The optical density at 650 nm of each extraction was determined using a plate reader (Beckman Biomek®).
A wide range of ratios of the two active ingredients can be used, depending on several factors including the microorganisms to be controlled. In this example, data designated as QA and Qa in each case are for hops extract and data designated as QB and Qb are for the other antimicrobial (IZN, POLYQUAT, GLUT, TBTZ, DCOI, THPS, BNEF, DBNPA, and DTEA).

The mark [1] stands for this setting: with hops extract 8 ppm, Endpoint OD650 = 0.300.
Where [2] appears, read: with hops extract 16 ppm, Endpoint OD650 = 0.300.

Values joined by “and” are separate entries in the source; they are usually repeats but may differ in a detail not shown here. Identical values can stand only once.

With `O=[N+]([O-])C(Br)=Cc1ccco1` [BNEF, 2-(2-bromo-2-nitroethenyl)furan], under “Endpoint OD650 = 0.300, (32) used for synergy calculations”, the “QB (concentration of the antimicrobial that produces the endpoint when acting alone)” value is given as >16 (32) ppm. For the same compound, the “Qb (concentration of the antimicrobial in the combination required to produce the endpoint)” value runs as follows: (with hops extract 4 ppm, Endpoint OD650 = 0.300) 16 ppm; under setting [1], 16 ppm; under setting [2], 1 ppm.
In the case of `N#CC(Br)(Br)C(N)=O` [DBNPA, 2,2-dibromo-3-nitrilopropionamide], where the note is “Endpoint OD650 = 0.200, (32) used for synergy calculations”, the “QB (concentration of the antimicrobial that produces the endpoint when acting alone)” value was >16 (32) ppm. Moreover, the “Qb (concentration of the antimicrobial in the combination required to produce the endpoint)” value by setting is: (with hops extract 4 ppm, Endpoint OD650 = 0.200) 16 ppm; (with hops extract 16 ppm, Endpoint OD650 = 0.200) 16 ppm.
Turning to `CCCCCCCCn1sc(Cl)c(Cl)c1=O` [DCOI, 4,5-dichloro-2-n-octyl-4-isothiazolin-3-one], the “QB (concentration of the antimicrobial that produces the endpoint when acting alone)” value (Endpoint OD650 = 0.150, (32) used for synergy calculations) is recorded as >16 (32) ppm. Further, the “Qb (concentration of the antimicrobial in the combination required to produce the endpoint)” value is 16 ppm (with hops extract 4 ppm, Endpoint OD650 = 0.150); 8 ppm and 16 ppm (with hops extract 64 ppm, Endpoint OD650 = 0.150).
As to `CCCCCCCCCCSCCN` [DTEA, 2-(decylthio)ethanamine], the “QB (concentration of the antimicrobial that produces the endpoint when acting alone)” value (Endpoint OD650 = 0.300) amounted to 16 ppm. For the same compound, the “Qb (concentration of the antimicrobial in the combination required to produce the endpoint)” value is, setting by setting: under setting [1], 4 ppm and 8 ppm; under setting [2], 1 ppm and 2 ppm.
Regarding `O=CCCCC=O` [GLUT, glutaraldehyde], for the setting “Endpoint OD650 = 0.250, (32) used for synergy calculations”, the “QB (concentration of the antimicrobial that produces the endpoint when acting alone)” value was >16 (32) ppm. The “Qb (concentration of the antimicrobial in the combination required to produce the endpoint)” value (with hops extract 16 ppm, Endpoint OD650 = 0.250) is 4 ppm.
On to `CCNc1nc(Cl)nc(NC(C)(C)C)n1` [TBTZ, 2-(tert-butylamino)-4-chloro-6(ethylamino)-s-triazine], for which the “QB (concentration of the antimicrobial that produces the endpoint when acting alone)” value (Endpoint OD650 = 0.250) is 16 ppm.
Consider methylchloro/isothiazolone [IZN], for which the “QB (concentration of the antimicrobial that produces the endpoint when acting alone)” value (Endpoint OD650 = 0.100, (32) used for synergy calculations) is >16 (32) ppm. Moreover, the “Qb (concentration of the antimicrobial in the combination required to produce the endpoint)” value runs as follows: (with hops extract 16 ppm, Endpoint OD650 = 0.100) 16 ppm; (with hops extract 32 ppm, Endpoint OD650 = 0.100) 16 ppm; (with hops extract 64 ppm, Endpoint OD650 = 0.100) 8 ppm and 16 ppm; (with hops extract 128 ppm, Endpoint OD650 = 0.100) 8 ppm and 16 ppm; (with hops extract 256 ppm, Endpoint OD650 = 0.100) 8 ppm.
In the case of “tetrakishydroxymethyl phosphonium sulfate [THPS]”, under “Endpoint OD650 = 0.250”, the “QB (concentration of the antimicrobial that produces the endpoint when acting alone)” value is 16 ppm. Further, the “Qb (concentration of the antimicrobial in the combination required to produce the endpoint)” value is, setting by setting: (with hops extract 4 ppm, Endpoint OD650 = 0.250) 4 ppm; (with hops extract 8 ppm, Endpoint OD650 = 0.250) 4 ppm and 8 ppm.

These data come from patent US6379720B1, “Compositions containing hops extract and their use in water systems and process streams to control biological fouling” (Nalco Chemical Company, priority 2000, dated 2002).
